Data taken from ChEMBL document CHEMBL5465560, “Selectivity Literature for EUbOPEN Chemogenomic Library” (2024).
Each block holds one compound with its values, some of them ahead of it.

Legend:
[1] = target: Protein arginine N-methyltransferase 5 (Homo sapiens, UniProt O14744); test: Selectivity interaction (Methyltransferase screen (radiometric assays, panel of 8 PRMTs, 21 protein lysine methyltransferases, 3 DNA methyltransferases, and one RNA methyltransferase)) EUB0000272b PRMT5
[2] = target: T1, Serine/threonine-protein kinase STK11 (Homo sapiens) (UniProt Q15831); test: Selectivity interaction (Ambit KINOMEscan and KiNATiv profiling in Jurkat cells) EUB0000090b STK11; format: cell-based; conditions: at 1 µM
T1 sequence (whole entry): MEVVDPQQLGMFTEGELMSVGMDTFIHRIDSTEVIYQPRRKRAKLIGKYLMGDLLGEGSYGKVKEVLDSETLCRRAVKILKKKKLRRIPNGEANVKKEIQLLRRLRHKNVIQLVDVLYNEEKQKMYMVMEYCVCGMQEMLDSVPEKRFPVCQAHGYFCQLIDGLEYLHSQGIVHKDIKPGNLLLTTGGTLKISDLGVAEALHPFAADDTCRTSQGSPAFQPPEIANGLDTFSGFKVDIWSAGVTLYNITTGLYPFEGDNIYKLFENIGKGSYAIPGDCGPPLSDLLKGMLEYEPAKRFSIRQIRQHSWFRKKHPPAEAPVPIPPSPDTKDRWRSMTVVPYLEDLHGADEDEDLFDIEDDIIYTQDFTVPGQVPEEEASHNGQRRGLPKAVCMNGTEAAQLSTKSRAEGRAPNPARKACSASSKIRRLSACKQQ

[3] = system: Tyrosine-protein kinase ABL1 (Homo sapiens), P00519 [F317I]; test: Selectivity interaction (KinomeScan (DiscoverX)) EUB0000655a ABL1; conditions: at 10 µM
[4] = target: Proto-oncogene tyrosine-protein kinase Src (Homo sapiens, UniProt P12931); test: Selectivity interaction (ActivX KiNativ screen (ex vivo kinase selectivity in human PBMCs)) EUB0001619a SRC; format: cell-based; conditions: PBMC, at 1 µM
[5] = target: Macrophage colony-stimulating factor 1 receptor (Homo sapiens) (UniProt P07333); test: Selectivity interaction (KinomeScan (DiscoverX)) EUB0001619a CSF1R; conditions: at 1 µM
[6] = target: Serine/threonine-protein kinase SIK3 (Homo sapiens) (UniProt Q9Y2K2); test: Selectivity interaction (KinomeScan (DiscoverX)) EUB0000595a SIK3; conditions: at 10 µM
[7] = target: Protein-tyrosine kinase 2-beta (Homo sapiens) (UniProt Q14289); test: Selectivity interaction (ActivX KiNativ screen (kinase selectivity in THP-1 cell lysates)) EUB0000639a PTK2B; format: subcellular; conditions: lysate, at 0.01 µM
[8] = target: Calcium/calmodulin-dependent protein kinase kinase 2 (Homo sapiens) (UniProt Q96RR4); test: Selectivity interaction (ActivX KiNativ screen (kinase selectivity in THP-1 cell lysates)) EUB0000639a CAMKK2; format: subcellular; conditions: lysate, at 5 µM
[9] = target: Tyrosine-protein kinase BTK (Homo sapiens, UniProt Q06187); test: Selectivity interaction (ActivX KiNativ screen (kinase selectivity in THP-1 cell lysates)) EUB0000639a BTK; format: subcellular; conditions: lysate, at 5 µM
[10] = target: T2, Serine/threonine-protein kinase Nek2 (Homo sapiens) (UniProt P51955); test: Selectivity interaction (KinomeScan (DiscoverX)) EUB0000229b NEK2; conditions: at 10 µM
T2 sequence (whole entry): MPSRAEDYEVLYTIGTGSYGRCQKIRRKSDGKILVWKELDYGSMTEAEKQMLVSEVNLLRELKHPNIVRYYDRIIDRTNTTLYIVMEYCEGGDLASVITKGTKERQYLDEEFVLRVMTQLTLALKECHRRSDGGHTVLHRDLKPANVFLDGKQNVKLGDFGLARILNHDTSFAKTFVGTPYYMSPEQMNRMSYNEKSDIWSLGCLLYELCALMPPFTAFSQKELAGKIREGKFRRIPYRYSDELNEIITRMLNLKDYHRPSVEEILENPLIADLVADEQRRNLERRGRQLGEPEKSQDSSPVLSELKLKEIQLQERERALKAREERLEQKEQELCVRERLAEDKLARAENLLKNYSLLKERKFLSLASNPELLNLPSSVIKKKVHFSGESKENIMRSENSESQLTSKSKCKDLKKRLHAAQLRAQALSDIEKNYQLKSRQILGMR

[11] = target: T3, Protein kinase C epsilon type (Homo sapiens) (UniProt Q02156); test: Selectivity interaction (ProQinase) EUB0000171b PRKCE
T3 sequence (whole entry): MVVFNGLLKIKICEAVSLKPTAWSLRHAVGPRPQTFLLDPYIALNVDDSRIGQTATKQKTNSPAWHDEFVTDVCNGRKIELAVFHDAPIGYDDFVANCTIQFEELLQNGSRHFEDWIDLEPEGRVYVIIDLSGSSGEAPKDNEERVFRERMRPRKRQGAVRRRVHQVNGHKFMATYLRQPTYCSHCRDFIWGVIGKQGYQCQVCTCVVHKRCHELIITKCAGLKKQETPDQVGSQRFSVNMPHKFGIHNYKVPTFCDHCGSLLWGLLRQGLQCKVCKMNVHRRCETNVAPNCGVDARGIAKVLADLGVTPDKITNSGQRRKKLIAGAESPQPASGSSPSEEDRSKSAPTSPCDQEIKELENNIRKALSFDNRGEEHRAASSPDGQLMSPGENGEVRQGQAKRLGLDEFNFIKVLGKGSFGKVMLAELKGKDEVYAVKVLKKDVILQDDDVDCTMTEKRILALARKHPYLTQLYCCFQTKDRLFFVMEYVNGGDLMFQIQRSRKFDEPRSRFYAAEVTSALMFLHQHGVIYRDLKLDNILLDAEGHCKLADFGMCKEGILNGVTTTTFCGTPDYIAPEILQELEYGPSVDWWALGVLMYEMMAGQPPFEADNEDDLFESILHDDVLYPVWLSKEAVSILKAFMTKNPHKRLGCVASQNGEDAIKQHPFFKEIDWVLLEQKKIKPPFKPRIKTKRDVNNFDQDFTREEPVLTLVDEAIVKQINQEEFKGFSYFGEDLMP

[12] = target: T3, Protein kinase C epsilon type (Homo sapiens); test: Selectivity interaction (KinomeScan (DiscoverX)) EUB0000666a PRKCE; conditions: at 10 µM
[13] = target: Ephrin type-A receptor 5 (Homo sapiens) (UniProt P54756); test: Selectivity interaction (KinomeScan (DiscoverX)) EUB0000092b EPHA5; conditions: at 10 µM
[14] = target: Serine/threonine-protein kinase 35 (Homo sapiens) (UniProt Q8TDR2); test: Selectivity interaction (KinomeScan (DiscoverX)) EUB0000092b STK35; conditions: at 10 µM
[15] = target: NT-3 growth factor receptor (Homo sapiens, UniProt Q16288); test: Selectivity interaction (KinomeScan (DiscoverX)) EUB0000092b NTRK3; conditions: at 10 µM
[16] = target: Tyrosine-protein kinase JAK2 (Homo sapiens, UniProt O60674); test: Selectivity interaction (Kinase panel (Z-LYTE Assay)) EUB0001632a JAK2; conditions: at 10 µM
[17] = target: Glycogen synthase kinase-3 beta (Homo sapiens, UniProt P49841); test: Selectivity interaction (Kinase panel (Z-LYTE Assay)) EUB0001632a GSK3B; conditions: at 10 µM
[18] = system: Leucine-rich repeat serine/threonine-protein kinase 2 (Homo sapiens), Q5S007 [G2019S]; test: Selectivity interaction (Adapta Assay) EUB0001632a LRRK2; conditions: at 10 µM

Chain of Protein arginine N-methyltransferase 5 (O14744 whole entry): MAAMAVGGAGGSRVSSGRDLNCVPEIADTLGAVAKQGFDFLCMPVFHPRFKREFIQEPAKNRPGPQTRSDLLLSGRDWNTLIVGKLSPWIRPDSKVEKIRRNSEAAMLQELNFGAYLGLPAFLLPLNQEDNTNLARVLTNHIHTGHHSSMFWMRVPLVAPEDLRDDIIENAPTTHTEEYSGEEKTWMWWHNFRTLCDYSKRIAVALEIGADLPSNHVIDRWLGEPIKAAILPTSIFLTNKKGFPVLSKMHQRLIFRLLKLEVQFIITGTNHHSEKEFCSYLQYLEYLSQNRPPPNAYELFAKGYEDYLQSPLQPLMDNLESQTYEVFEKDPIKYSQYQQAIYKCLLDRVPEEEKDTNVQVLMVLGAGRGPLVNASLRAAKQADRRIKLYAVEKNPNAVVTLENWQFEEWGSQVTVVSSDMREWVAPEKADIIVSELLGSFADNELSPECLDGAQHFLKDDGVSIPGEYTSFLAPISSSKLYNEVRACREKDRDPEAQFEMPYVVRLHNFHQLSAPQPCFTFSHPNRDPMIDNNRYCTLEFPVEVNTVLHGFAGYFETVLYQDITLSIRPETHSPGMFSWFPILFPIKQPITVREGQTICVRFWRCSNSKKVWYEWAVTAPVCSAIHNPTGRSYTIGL
Chain of NT-3 growth factor receptor (Q16288 32-839 limits assumed): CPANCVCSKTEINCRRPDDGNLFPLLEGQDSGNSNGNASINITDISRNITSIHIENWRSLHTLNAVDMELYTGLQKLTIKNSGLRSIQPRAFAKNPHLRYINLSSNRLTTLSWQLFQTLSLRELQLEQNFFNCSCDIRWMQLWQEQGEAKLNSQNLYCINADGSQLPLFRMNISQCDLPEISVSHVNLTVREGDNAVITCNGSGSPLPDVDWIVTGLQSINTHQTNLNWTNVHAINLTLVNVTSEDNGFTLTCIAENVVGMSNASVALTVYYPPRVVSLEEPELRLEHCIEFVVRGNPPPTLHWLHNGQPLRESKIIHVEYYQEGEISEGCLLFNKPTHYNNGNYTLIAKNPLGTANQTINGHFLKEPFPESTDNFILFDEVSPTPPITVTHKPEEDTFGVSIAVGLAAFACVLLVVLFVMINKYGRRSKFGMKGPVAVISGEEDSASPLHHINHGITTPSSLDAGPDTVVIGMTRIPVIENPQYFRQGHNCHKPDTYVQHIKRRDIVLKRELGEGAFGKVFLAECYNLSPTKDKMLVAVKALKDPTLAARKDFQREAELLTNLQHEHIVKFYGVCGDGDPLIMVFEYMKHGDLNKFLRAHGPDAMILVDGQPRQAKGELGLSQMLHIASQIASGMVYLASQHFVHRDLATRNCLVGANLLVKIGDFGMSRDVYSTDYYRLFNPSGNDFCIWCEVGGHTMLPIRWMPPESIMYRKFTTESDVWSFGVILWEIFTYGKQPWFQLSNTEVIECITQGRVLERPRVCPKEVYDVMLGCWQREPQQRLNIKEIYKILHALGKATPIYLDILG
Chain of Tyrosine-protein kinase BTK (Q06187 whole entry): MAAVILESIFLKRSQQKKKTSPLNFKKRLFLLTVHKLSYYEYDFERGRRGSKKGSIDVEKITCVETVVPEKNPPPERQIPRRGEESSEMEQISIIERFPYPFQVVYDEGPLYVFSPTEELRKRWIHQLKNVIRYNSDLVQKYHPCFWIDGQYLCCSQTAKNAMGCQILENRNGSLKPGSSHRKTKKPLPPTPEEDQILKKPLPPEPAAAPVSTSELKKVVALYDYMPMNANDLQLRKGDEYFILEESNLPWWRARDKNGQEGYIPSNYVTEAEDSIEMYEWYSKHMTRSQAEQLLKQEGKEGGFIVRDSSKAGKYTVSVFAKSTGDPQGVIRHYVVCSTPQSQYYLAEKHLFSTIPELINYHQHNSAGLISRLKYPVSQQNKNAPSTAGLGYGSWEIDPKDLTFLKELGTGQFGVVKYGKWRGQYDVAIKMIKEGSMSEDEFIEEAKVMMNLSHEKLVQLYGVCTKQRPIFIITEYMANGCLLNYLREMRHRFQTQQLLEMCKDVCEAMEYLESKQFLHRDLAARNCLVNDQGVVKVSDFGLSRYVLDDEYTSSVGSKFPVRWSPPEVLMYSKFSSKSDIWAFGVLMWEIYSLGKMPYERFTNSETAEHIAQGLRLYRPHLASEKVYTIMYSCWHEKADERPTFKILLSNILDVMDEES
Chain of Protein-tyrosine kinase 2-beta (Homo sapiens) (Q14289 whole entry, looked up): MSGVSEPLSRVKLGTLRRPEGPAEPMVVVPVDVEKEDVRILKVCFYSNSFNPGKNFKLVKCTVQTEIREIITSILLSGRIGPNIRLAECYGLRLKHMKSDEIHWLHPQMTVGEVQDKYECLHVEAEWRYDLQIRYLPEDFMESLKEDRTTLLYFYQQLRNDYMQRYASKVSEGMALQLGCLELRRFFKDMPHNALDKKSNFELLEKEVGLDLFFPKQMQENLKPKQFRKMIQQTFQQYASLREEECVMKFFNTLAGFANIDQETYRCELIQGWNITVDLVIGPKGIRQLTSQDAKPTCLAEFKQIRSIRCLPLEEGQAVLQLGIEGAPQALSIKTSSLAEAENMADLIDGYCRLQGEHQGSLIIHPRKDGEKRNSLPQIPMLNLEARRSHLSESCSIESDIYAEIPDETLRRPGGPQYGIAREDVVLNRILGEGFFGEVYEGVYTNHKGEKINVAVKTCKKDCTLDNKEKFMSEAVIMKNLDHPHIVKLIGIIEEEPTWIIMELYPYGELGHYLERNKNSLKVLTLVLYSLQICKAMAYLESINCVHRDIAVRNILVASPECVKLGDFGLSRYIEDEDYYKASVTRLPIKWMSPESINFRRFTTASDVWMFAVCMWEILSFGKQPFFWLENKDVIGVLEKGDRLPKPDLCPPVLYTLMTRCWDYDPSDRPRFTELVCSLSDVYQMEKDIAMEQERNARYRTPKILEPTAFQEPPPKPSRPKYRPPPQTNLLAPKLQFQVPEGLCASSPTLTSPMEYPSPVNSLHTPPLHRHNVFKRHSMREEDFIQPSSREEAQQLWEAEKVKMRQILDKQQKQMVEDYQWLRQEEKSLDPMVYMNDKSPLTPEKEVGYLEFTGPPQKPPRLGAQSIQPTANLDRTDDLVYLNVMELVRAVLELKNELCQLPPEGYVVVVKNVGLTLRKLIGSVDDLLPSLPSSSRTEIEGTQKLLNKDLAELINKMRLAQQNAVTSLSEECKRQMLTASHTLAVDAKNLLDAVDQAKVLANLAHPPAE
Chain of Calcium/calmodulin-dependent protein kinase kinase 2 (Homo sapiens) (Q96RR4 2-588 limits assumed): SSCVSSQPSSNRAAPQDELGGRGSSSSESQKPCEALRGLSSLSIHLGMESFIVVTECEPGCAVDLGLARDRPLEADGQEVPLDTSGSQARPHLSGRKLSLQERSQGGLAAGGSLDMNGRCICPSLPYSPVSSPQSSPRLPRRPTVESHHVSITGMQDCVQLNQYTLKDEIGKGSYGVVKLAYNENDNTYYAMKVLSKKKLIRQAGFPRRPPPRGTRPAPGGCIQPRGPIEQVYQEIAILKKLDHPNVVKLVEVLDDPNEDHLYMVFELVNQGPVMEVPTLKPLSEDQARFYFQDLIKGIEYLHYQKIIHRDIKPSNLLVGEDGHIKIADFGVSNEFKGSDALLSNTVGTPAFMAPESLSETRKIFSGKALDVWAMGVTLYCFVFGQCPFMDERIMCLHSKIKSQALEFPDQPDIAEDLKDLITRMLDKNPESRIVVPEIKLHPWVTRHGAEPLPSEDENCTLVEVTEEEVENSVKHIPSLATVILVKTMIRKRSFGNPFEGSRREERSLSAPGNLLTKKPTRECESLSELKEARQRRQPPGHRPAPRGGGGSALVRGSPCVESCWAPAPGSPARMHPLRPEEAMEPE
Chain of Glycogen synthase kinase-3 beta (P49841 whole entry, looked up): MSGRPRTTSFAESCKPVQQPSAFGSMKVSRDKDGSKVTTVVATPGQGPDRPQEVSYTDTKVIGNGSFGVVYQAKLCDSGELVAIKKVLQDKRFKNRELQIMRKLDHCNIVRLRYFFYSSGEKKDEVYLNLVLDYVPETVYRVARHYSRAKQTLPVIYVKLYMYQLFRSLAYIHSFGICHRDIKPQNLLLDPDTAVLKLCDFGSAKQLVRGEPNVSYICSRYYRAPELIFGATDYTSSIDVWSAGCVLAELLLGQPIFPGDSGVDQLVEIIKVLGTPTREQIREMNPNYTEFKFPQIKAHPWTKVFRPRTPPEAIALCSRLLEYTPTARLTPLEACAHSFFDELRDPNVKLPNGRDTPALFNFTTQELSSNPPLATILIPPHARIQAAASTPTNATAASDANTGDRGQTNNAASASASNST
Chain of Serine/threonine-protein kinase 35 (Homo sapiens) (Q8TDR2 whole entry): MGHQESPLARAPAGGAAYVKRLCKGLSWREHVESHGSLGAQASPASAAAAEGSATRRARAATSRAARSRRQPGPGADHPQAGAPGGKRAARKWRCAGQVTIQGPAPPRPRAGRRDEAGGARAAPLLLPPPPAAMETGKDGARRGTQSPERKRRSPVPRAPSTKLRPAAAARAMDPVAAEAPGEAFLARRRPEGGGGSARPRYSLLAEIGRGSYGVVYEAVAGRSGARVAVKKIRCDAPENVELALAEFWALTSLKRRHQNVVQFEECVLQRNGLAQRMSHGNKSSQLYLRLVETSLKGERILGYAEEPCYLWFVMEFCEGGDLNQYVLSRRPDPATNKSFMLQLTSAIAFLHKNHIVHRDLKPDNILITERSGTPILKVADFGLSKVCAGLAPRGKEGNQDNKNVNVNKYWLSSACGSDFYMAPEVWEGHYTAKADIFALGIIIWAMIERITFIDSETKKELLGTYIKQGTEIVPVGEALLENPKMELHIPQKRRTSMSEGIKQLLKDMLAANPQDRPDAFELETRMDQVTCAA

- % of activity ([1]; at 1 µM): 98.7%
- % of activity ([1]; at 10 µM): 99%
SMILES: Cc1cc(C)cc([C@H]2c3cc(C)ccc3NC(=O)CN2C(=O)c2ccc(Br)s2)c1

SMILES: CN(C)C/C=C/C(=O)Nc1ccc(C(=O)N2CCCC(Nc3ncc(Cl)c(-c4c[nH]c5ccccc45)n3)C2)cc1 (stereo not given)
- % of control [2]: 94%

SMILES: CN(C)CCOc1ccc(-c2nc(-c3ccncc3)c(-c3ccc4c(c3)CC/C4=N\O)[nH]2)cc1
- % of control [3]: 81%

SMILES: N#Cc1cccc(-c2c[nH]c3ncnc(N4CCOCC4)c23)c1
- % of inhibition [4]: -2%
- % of control [5]: 100%

SMILES: COCC(=O)NC/C=C/c1ccc2ncnc(Nc3ccc(Oc4ccc(C)nc4)c(C)c3)c2c1 [CP-724714]
- % of control [6]: 76%

- % of inhibition [7]: -0.9%
- % of inhibition [8]: 56.9%
- % of inhibition [9]: -7%
SMILES: CC[C@@H]1[C@H](F)C(=O)N[C@@H]1COc1nccc2cc(C(N)=O)c(OC)cc12 [ZIMLOVISERTIB]

SMILES: COc1cc(N(C)c2ccnc3ccc(C(F)(F)F)cc23)cc(OC)c1OC
- % binding [10]: 92%

- % of control ([11]; at 1 µM): 97%
- % of control ([11]; at 5 µM): 108%
SMILES: C=CC(=O)Nc1cccc(C(=O)Nc2ccc(Nc3cc(-c4[nH]c(SC)nc4C)ccn3)cc2)c1

SMILES: O=C(NOC[C@H](O)CO)c1ccc(F)c(F)c1Nc1ccc(I)cc1F
- % of control [12]: 100%

SMILES: CCC(=O)N1CCN(c2ccc(-n3c(=O)ccc4cnc5ccc(-c6cnc7ccccc7c6)cc5c43)cc2C(F)(F)F)CC1
- % of control [13]: 100%
- % of control [14]: 18%
- % of control [15]: 100%

- % of control [16]: 3.68%
- % of control [17]: 89.1%
- % of inhibition [18]: 95%
SMILES: Cn1cc(-n2cnc3c(NCc4nc5cc(Cl)c(Cl)cc5[nH]4)nc(N4CCOCC4)nc32)cn1
